Data as given in patent US20070105960A1, “Treatment of learning disabilities and motor skills disorder with norepinephrine reuptake inhibitors” (ELI LILLY AND COMPANY, priority 2003, published 2007).
“Also recorded” adds a separate entry of the source.

Legend:
rats [1] = assay: 8-arm radial maze delayed non-match to sample task; type: in vivo, rat; settings: FIG. 1
Experimental: (§1) The effects of atomoxetine on learning and memory in rats are evaluated in two different animal models. In an 8-arm radial maze delayed non-match to sample (DNMTS) task, well-trained rats recall where they received rewards during an information phase in order to obtain the remaining rewards during a retention phase conducted after a delay of several hours. Performance in this task is influenced by the administration of putative amnesics and cognitive enhancers (Staubli U, Rogers G, Lynch G (1994) Facilitation of glutamate receptors enhances memory. Proc Natl Acad Sci USA 91: 777-781; Pilcher J J, Sessions G R, McBride S A (1997) Scopolamine impairs spatial working memory in the radial maze: an analysis by error type and arm choice. Pharmacol Biochem Behav 58: 449-459; Pussinen R, Sirvio J (1999) Effects of D-cycloserine, a positive modulator of N-methyl-D-aspartate receptors, and ST 587, a putative alpha-1 adrenergic agonist, individually and in combination, on the non-delayed and delayed foraging behaviour of rats assessed in the radial arm maze. J Psychopharinacol 13:171-179; Wolff M. C., Leander, J. David (2003) A comparison of the effects of antipsychotics on a delayed radial maze task in the rat. Psychopharmacolology 168:410-416). […]

rats [2] = assay: Object recognition test; type: in vivo, rat; settings: three hour delay, 60 minutes pre-treatment, FIG. 2
Experimental: as §1, with “maze.” for “maze. J Psychopharinacol 13:171-179; Wolff M. C., Leander, J. David (2003) A comparison of the effects of antipsychotics on a delayed radial maze task in the rat. Psychopharmacolology 168:410-416).”
During the testing phase of the experiment, rats are administered appropriate vehicle or drug (N=9/dose) and placed back in their home cage for the pre-treatment period (60 minutes). […] The time spent sniffing (nose <2.5 cm from the object), gnawing, or touching the objects with the front paws is recorded. […]

SMILES: CNCC[C@@H](Oc1ccccc1C)c1ccccc1 [atomoxetine, (R)-(−)-N-methyl-3-(2-methyl-phenoxy)-3-phenylpropylamine]
- errors in the 8 arm radial maze retention paradigm (rats [1]): reduction of errors
- learning and memory performance in the 8 arm radial maze (rats [1]; oral, 7 hour delay): improves learning and memory performance
- object recognition (rats [2]): improves object recognition; also recorded: improvement of object recognition
